In patent US12692256B2, “Salts and crystalline forms of a TAAR1 agonist” (Hoffmann-La Roche Inc., priority 2020, dated 2026):
Entries after “also recorded” stand apart in the source; their conditions may differ. Structures can show the parent of a compound that is named as a salt.

Experiments:
[1] = Dynamic Vapour Sorption (DVS) hygroscopicity; assay type: physicochemical; details: for Hygroscopicity, weight increase: 0%-RH to 90%-RH at 25° C.; for Hygroscopicity: increase in mass when relative humidity is raised from 0%-RH to 90%-RH at 25° C.
Procedure: For each salt formation experiment 5-ethyl-4-methyl-N-[4-[(2S) morpholin-2-yl]phenyl]-1H-pyrazole-3-carboxamide (approx. 450 mg) was dissolved in dioxane (approx. 90 mL) at elevated temperature (approx. 90° C.) in a 100 mL glass vial. The clear solution was then cooled to 60° C. (to approx. 40° C. for adipic acid) prior to the addition of approx. 1.1 equivalents (approx. 0.55 equivalents for sulfuric acid) of a 0.5 M (0.2 M for fumaric acid) stock solution in dioxane of the respective acid under agitation. The reaction mixture was then allowed to reach ambient temperature passively and further agitated overnight. In the cases of adipic acid, the solvent was partially evaporated at this stage to increase the yield. The solid residue was collected by filtration and rinsed with approx. 2 mL of dioxane. A sample of the wet product was analyzed by XRPD. The remainder of the product was dried in a vacuum tray dryer at 50° C./<10 mbar for 2 days prior to analysis by XRPD, DSC, TGA, and, if appropriate, also by DVS.
Moisture sorption/desorption data were collected on a DVS Advantage, a DVS Adventure, or a DVS Intrinsic (SMS Surface Measurements Systems) moisture balance system. The sorption/desorption isotherms were measured stepwise in a range from 0%-RH to 90%-RH at typically 25° C. A weight change of typically <0.001%/min was chosen as criterion to switch to the next level of relative humidity (with a maximum equilibration time of typically 24 hours, if the weight change criterion was not met). The data were corrected for the initial moisture content of the samples by taking the weight after drying of the samples at 0%-RH as zero point. The hygroscopicity of a given substance is characterized (by close analogy with the European Pharmacopoeia) by the increase in mass when the relative humidity is raised from 0%-RH to 90%-RH at 25° C.: […]

[2] = Aqueous solubility; assay type: physicochemical
Procedure: Aqueous solubility was determined by suspending sufficient compound in water water to give a maximum final concentration of 100 mg/mL. The solution was stirred for 24 hours at room temperature (25° C.±5° C.) on a magnetic stirrer using a magnetic stir bar. The final pH of the suspension was measured after 24 hours with a standard pH meter. The suspension was filtered by centrifugation through a ≤0.45 μm PVDF filter. The filtrate was then diluted 1:500 using a solution of ethanol: water (1:1). Quantification was by HPLC using a previously developed HPLC method (Table 4). A standard curve with a concentration range from 0.001 mg/mL-0.3 mg/ml. The solubility was automatically calculated using the peak area of the main peak in the chromatogram.
Aqueous solubility was determined by suspending sufficient compound in water to give a maximum final concentration of ≥10 mg/mL of the parent free-form of the compound. The suspension was equilibrated at 25° C. for 24 hours then the pH was measured. The suspension was then filtered through a glass fibre C filter. The filtrate was then diluted by an appropriate factor e.g. 101. Quantitation was by HPLC with reference to a standard solution of approximately 0.25 mg/mL in DMSO. Different volumes of the standard, diluted and undiluted sample solutions were injected. […]

[3] = crystalline Form A, between 0-90% RH

CCc1[nH]nc(C(=O)Nc2ccc([C@H]3CNCCO3)cc2)c1C [5-ethyl-4-methyl-N-[4-[(2S)morpholin-2-yl]phenyl]-1H-pyrazole-3-carboxamide, mono hydrochloric acid salt]
relative humidity at which rate of water uptake was observed to increase ([1]; crystalline Form A): > 80 % RH
hysteresis (DVS) [1, 3]: no hysteresis
mass uptake (DVS) [1, 3]: < 0.1%
pH of saturated aqueous solution ([2]; saturated aqueous solution after 24 hours): 5.3
solubility at 24 h ([2]; water, thermodynamic from solid, saturated aqueous solution, 24 hours at 25° C., pH 5.3): 52.8 mg/mL

CCc1[nH]nc(C(=O)Nc2ccc([C@H]3CNCCO3)cc2)c1C [Adipic acid, 5-ethyl-4-methyl-N-[4-[(2S)morpholin-2-yl]phenyl]-1H-pyrazole-3-carboxamide]
Hygroscopicity, weight increase ([1]; re-crystallized salt forms): (0.2%-m/m

CCc1[nH]nc(C(=O)Nc2ccc([C@H]3CNCCO3)cc2)c1C [Citric acid, 5-ethyl-4-methyl-N-[4-[(2S)morpholin-2-yl]phenyl]-1H-pyrazole-3-carboxamide]
Hygroscopicity ([1]; crude salt forms): Very hygroscopic; also recorded: (deliquescent) (deliquescent: sufficient water is adsorbed to form a liquid)

CCc1[nH]nc(C(=O)Nc2ccc([C@H]3CNCCO3)cc2)c1C [Glycolic acid, 5-ethyl-4-methyl-N-[4-[(2S)morpholin-2-yl]phenyl]-1H-pyrazole-3-carboxamide]
Hygroscopicity ([1]; crude salt forms): Very hygroscopic; also recorded: (deliquescent) (deliquescent: sufficient water is adsorbed to form a liquid)

CCc1[nH]nc(C(=O)Nc2ccc([C@H]3CNCCO3)cc2)c1C [Hydrochloric acid, 5-ethyl-4-methyl-N-[4-[(2S)morpholin-2-yl]phenyl]-1H-pyrazole-3-carboxamide]
Hygroscopicity, weight increase ([1]; crude salt forms): (0.5%-m/m weight
Hygroscopicity, weight increase ([1]; re-crystallized salt forms): (<0.1%-m/m
Hygroscopicity ([1]; re-crystallized salt forms): Non-hygroscopic

CCc1[nH]nc(C(=O)Nc2ccc([C@H]3CNCCO3)cc2)c1C [L(+)-Tartaric acid, 5-ethyl-4-methyl-N-[4-[(2S)morpholin-2-yl]phenyl]-1H-pyrazole-3-carboxamide]
Hygroscopicity, weight increase ([1]; re-crystallized salt forms): (0.4%-m/m

CCc1[nH]nc(C(=O)Nc2ccc([C@H]3CNCCO3)cc2)c1C [Methanesulfonic acid, 5-ethyl-4-methyl-N-[4-[(2S)morpholin-2-yl]phenyl]-1H-pyrazole-3-carboxamide]
phase transformation (relative humidity) ([1]; crude salt form, at 25° C.): at >80%-RH at
Hygroscopicity, weight increase ([1]; crude salt forms): (8.5%-m/m weight
Hygroscopicity ([1]; crude salt forms): Hygroscopic

CCc1[nH]nc(C(=O)Nc2ccc([C@H]3CNCCO3)cc2)c1C [Phosphoric acid, 5-ethyl-4-methyl-N-[4-[(2S)morpholin-2-yl]phenyl]-1H-pyrazole-3-carboxamide]
Hygroscopicity, weight increase ([1]; re-crystallized salt forms): (0.2%-m/m

CCc1[nH]nc(C(=O)Nc2ccc([C@H]3CNCCO3)cc2)c1C [Sulfuric acid, 5-ethyl-4-methyl-N-[4-[(2S)morpholin-2-yl]phenyl]-1H-pyrazole-3-carboxamide]
Hygroscopicity, weight increase ([1]; re-crystallized salt forms): (0.1%-m/m
Hygroscopicity ([1]; re-crystallized salt forms): Non-hygroscopic

CCc1[nH]nc(C(=O)Nc2ccc([C@H]3CNCCO3)cc2)c1C [p-Toluenesulfonic acid, 5-ethyl-4-methyl-N-[4-[(2S)morpholin-2-yl]phenyl]-1H-pyrazole-3-carboxamide]
Hygroscopicity, weight increase ([1]; re-crystallized salt forms): (<0.1%-m/m
Hygroscopicity ([1]; re-crystallized salt forms): Non-hygroscopic
